Measurements taken from patent US8592374B2, “Neurotrophic peptides” (Research Foundation for Mental Hygiene, Inc., priority 2007, dated 2013).
Entries after “also recorded” stand apart in the source; their conditions may differ. Peptide text beside a SMILES is read from it. * marks the point of attachment. X1 = NC(=O)C12CC3CC(CC(N*)(C3)C1)C2

Columns and labels:
[1] = tested on: LIF-induced STAT3 phosphorylation at Tyr705 in HepG2 cells; assay: LIF-induced STAT3 phosphorylation in HepG2 cells (Western blot); assay type: cell-based, human; conditions: 15 min
Method: HepG2 cells were treated with different concentrations of P21 together with 0.25 nM LIF for 15 min, and then the STAT3 phosphorylation at Tyr705 (pY-STAT3) was determined by Western blots. The pY-STAT3 value was normalized to total STAT3 expression. Data are presented as percentages of the value from cells treated with 0.25 nM LIF alone (100%). *p<0.05; **p<0.01.
To investigate the molecular mechanism of action of compound P21 in LIF signaling, HepG2 human hepatoma cell (ATCC, USA) at 80% confluence were treated with different concentrations of P21 and with 0.25 nM LIF (Peprotec, Inc., USA) for 15 min. The cells were lysed and subjected to Western blots developed with antibodies anti-phospho-Tyr 705 STAT3 and anti-STAT3 (Cell signaling Technology, USA).
To investigate whether P21 affects LIF signaling pathway, HepG2 cells were treated with different concentrations of P21 from 0.01 to 1000 nM along with 0.25 nM LIF for 15 min, and then measured STAT3 phosphorylation by Western blots. […] In HepG2 cells, 10 nM of P21 inhibited ˜30% of LIF-induced phosphorylation of STAT3 (p<0.005, student t-test; FIG. 15).

[2] = General examination (physical state, body weight, exploratory activity, swim speed, floating); assay type: in vivo, mice; conditions: 25 nmol/day for 35 days
Method: All in vivo studies for characterization of compounds (stereology and behavioral analysis) were performed on 8-10-month-old female retired breeders of C57Bl6 background. Animals were acclimatized for at least 3 weeks to exclude occasional pregnant mice from the studies. Mice were group-housed (3 animals per cage) with a 12:12 hours light/dark cycle and with free access to food and water.
For the compound treatment, mice (8 animals/group) received subcutaneous implants of extended release depot pellets containing P21 or P22 at 25 nmol/day for 35 days of continuous dosing (Innovative Research of America, USA). For the control group (8 animals), pellets consisted of the carrier polymer only. Mice were anesthetized with 2.5% Avertin (0.38 ml for a 25 g animal). Under sterile conditions, pellets were implanted subcutaneously along the anterolateral aspect of the right shoulder with a precision trochar (Innovative Research of America). After recovery of anesthesia, animals were transferred to the animal colony. No complications associated with the implantation and treatment were observed. All procedures on animals were conducted in accordance with approved protocols from our Institutional Animal Welfare Committee.
The physical state and condition of animals were carefully monitored throughout the treatment by evaluating grooming, physical state and clasping reflex. Body weight was also recorded.
The test used was an adaptation of the procedure previously described by Sargolini and collaborators (Sargolini, F., et al. Behav Brain Res 138 (2003):153-63). The testing apparatus was a classic open field (i.e. a PVC square arena, 50×50 cm, with walls 40 cm high). The open field was placed in a part of the room separated from the experimentator with a black opaque curtain. The open field was surmounted by a video camera connected to a computer. Three objects were employed in this task. The general procedure consisted of three different phases: a familiarization phase (1 session of 20 min), a sample phase, and a test phase. On the first days, mice were individually submitted to the familiarization session during which they were introduced in the empty arena in order to become familiar with the apparatus. This familiarization session allowed to record a baseline level of locomotor activity (measuring the distance covered in the open field) and of anxiety (measuring the time the animals spent in the centre of the arena during the first five minutes). On the second day each mouse was first submitted to the sample phase (session 1, ten minutes) for which two identical objects were placed in a symmetric position from the centre of the arena. After a 15 minute delay during which the mouse returned to its home cage, it was reintroduced in the arena to perform the test phase (session 2, 10 min). The mouse was then exposed to two objects: a familiar object (previously presented during the sample phase) and a new object, placed at the same location as during the sample phase. Data collection was performed using a video tracking system (Smart version 2.0.14 software, Pan Lab/San Diego Instruments). Object discrimination was calculated as follows: OD=(time spent close to new object)/(time spent close to new object)+(time spent close to old object)×100

dentate gyrus = assay: Expression of synaptophysin and synapsin I in the DG (optical density); assay type: in vivo, mice; conditions: 25 nmol/day for 35 days
Method: For double labeling of BrdU and NeuN, brain sections were pretreated with 2 M HCl at 37° C. for 30 min and neutralized with 0.1 M borate buffer (pH 8.5) for 10 minutes. Tissue sections were incubated first for 30 min with blocking buffer (4% normal goat serum+0.1% Tween-20 in PBS) and then overnight at 4° C. in the presence of BrdU (Millipore Corporation, USA) and NeuN (Millipore Corporation) antibodies diluted 1:400 and 1:100, respectively. To determine the integrity of presynaptic terminals, tissues were labeled with anti-synaptophysin (1:200; Clone SY38, Millipore Corporation) or anti-synapsin I (1:200; Stressgen Biotechnologies Corporation, Canada). The brain sections were incubated in primary antibody over night at 4° C., respectively. Alexa 488 and 594 (1:500; Invitrogen, USA) were used as secondary antibodies. All images were obtained using Nikon Eclipse 90i and D-Eclipse C1 microscopes (Nikon Corporation, Japan).
For quantitative analysis of the expression of synaptophysin and synapsin I in DG, every tenth section in a series of 40 μm coronal sections throughout the hippocampus was analyzed. The entire area of GCL was outlined. Maximum projection images were then generated based on confocal z-stacks, and antibody staining was quantified by measuring the mean optical density (OD) with the help of NIH Image J program, version 1.32j (http://rsb.info.nih.gov/ij/).

In the case of `CC(=O)N[C@@H](CC(=O)O)C(=O)NCC(=O)NCC(=O)N[C@@H](CC(C)C)C(=O)NC12CC3CC(C1)CC(C(N)=O)(C3)C2` [Peptide P21, Ac-DGGL^AG-NH2] (Ac-DGGL-X1), the “inhibition of LIF-induced phosphorylation of STAT3” value ([1]; 10 nM P21, 0.25 nM LIF) is reported as roughly 30%, the “LIF-induced STAT3 phosphorylation, concentration dependence” value ([1]; 0.01 to 1000 nM P21, 0.25 nM LIF) is reported as “dose-dependent manner; also recorded: inhibited slightly in a dose-dependent manner” and the “exploratory behavior / exploratory activity” value ([2]; open field) is reported as “no alteration; also recorded: did not induce any effect”. For the same compound, the body weight ([2]; subcutaneous pellets) was “no alteration; also recorded: did not induce any effect”, the general physical state ([2]; subcutaneous pellets) was “no alteration” and the “synapsin I immunoreactivity in the GCL and MCL” value (dentate gyrus) was “significantly promoted expression; also recorded: Significant increases”. The “synaptophysin immunoreactivity in the GCL and MCL” value (dentate gyrus) was “significantly promoted expression; also recorded: Significant increases”.
